Data taken from US8288375B2, “Fungicidal bicyclic pyrazoles” (E.I. du Pont de Nemours and Company, priority 2007, dated 2012).

Key:
Assay type in all cases: in vivo
[1] = system: Erysiphe graminis f. sp. tritici; test: Test A: wheat powdery mildew, test suspension sprayed on wheat seedlings, disease rating; details: 200 ppm test suspension; 100 = 100% disease control, 0 = no control
[2] = system: Puccinia recondite f sp. tritici; test: Test B: wheat leaf rust, test suspension sprayed on wheat seedlings, disease rating; details: 200 ppm test suspension;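 further: 200 ppm unless marked * meaning 40 ppm or ** meaning 10 ppm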
Fusarium graminearum = test: whole plant or invertebrate; details: 200 ppm test suspension
Septoria nodorum = test: Test D: wheat glume blotch, test suspension sprayed on wheat seedlings, disease rating; details: 200 ppm test suspension
Septoria tritici = test: Test E: wheat leaf blotch, test suspension sprayed on wheat seedlings, disease rating; details: 200 ppm test suspension;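 further: 200 ppm unless marked * meaning 40 ppm or ** meaning 10 ppm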
Phytophthora infestans = test: whole plant or invertebrate; details: 200 ppm test suspension
Pythium aphanidermatum = test: Test L: bluegrass pythium blight, test suspension sprayed on bluegrass seedlings, disease rating; details: 200 ppm test suspension;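 further: 200 ppm unless marked * meaning 40 ppm or ** meaning 10 ppm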

Cc1ccccc1-c1nn2c(c1-c1ccnc(NC(C)C)n1)CCCC2 [compound 45]
Test A disease control rating [1]: 41%
Test B disease control rating [2]: 89%
Test C disease control rating (Fusarium graminearum): 0%
Test D disease control rating (Septoria nodorum): 60%
Test E disease control rating (Septoria tritici): 97%
Test J disease control rating (Phytophthora infestans): 76%
Test L disease control rating (Pythium aphanidermatum): 85%

Cc1ccccc1-c1nn2c(c1-c1ccnc(NC(C)CO)n1)CCCC2 (centres unmarked) [compound 46]
Test A disease control rating [1]: 0%
Test B disease control rating [2]: 74%
Test C disease control rating (Fusarium graminearum): 0%
Test D disease control rating (Septoria nodorum): 0%
Test E disease control rating (Septoria tritici): 50%
Test J disease control rating (Phytophthora infestans): 97%
Test L disease control rating (Pythium aphanidermatum): 100%

Fc1ccc(-c2nn3c(c2-c2ccnc(Nc4ccc(OC(F)(F)F)cc4)n2)CCCC3)cc1 [compound 60]
Test A disease control rating [1]: 0%
Test B disease control rating [2]: 74%
Test C disease control rating (Fusarium graminearum): 91%
Test D disease control rating (Septoria nodorum): 64%
Test E disease control rating (Septoria tritici): 71%
Test J disease control rating (Phytophthora infestans): 9%
Test L disease control rating (Pythium aphanidermatum): 0%

CC(C)Nc1nccc(-c2c(-c3ccc(F)cc3)nn3c2CCCC3)n1.Cl [compound 69]
Test A disease control rating [1]: 59%
Test B disease control rating [2]: 97%
Test C disease control rating (Fusarium graminearum): 100%
Test D disease control rating (Septoria nodorum): 99%
Test E disease control rating (Septoria tritici): 100%
Test J disease control rating (Phytophthora infestans): 97%
Test L disease control rating (Pythium aphanidermatum): 100%

C[C@H](CO)Nc1nccc(-c2c(-c3ccc(F)cc3)nn3c2CCOC3)n1 [compound 113]
Test A disease control rating [1]: 0%
Test B disease control rating [2]: 97%
Test C disease control rating (Fusarium graminearum): 99%
Test D disease control rating (Septoria nodorum): 78%
Test E disease control rating (Septoria tritici): 91%
Test J disease control rating (Phytophthora infestans): 96%
Test L disease control rating (Pythium aphanidermatum): 100%

CC(CO)Nc1nccc(-c2c(-c3ccsc3)nn3c2COCC3)n1 (centres unmarked) [compound 124]
Test A disease control rating [1]: 0%
Test B disease control rating [2]: 86%
Test C disease control rating (Fusarium graminearum): 98%
Test D disease control rating (Septoria nodorum): 60%
Test E disease control rating (Septoria tritici): 54%
Test J disease control rating (Phytophthora infestans): 66%
Test L disease control rating (Pythium aphanidermatum): 99%

CCN1CCCC1CNc1nccc(-c2c(-c3ccc(F)cc3)nn3c2CCCC3)n1 (centres unmarked) [compound 41]
Test A disease control rating [1]: 0%
Test B disease control rating [2]: 79%
Test C disease control rating (Fusarium graminearum): 0%
Test D disease control rating (Septoria nodorum): 0%
Test E disease control rating (Septoria tritici): 50%
Test J disease control rating (Phytophthora infestans): 0%
Test L disease control rating (Pythium aphanidermatum): 91%

CC(CO)Nc1nccc(-c2c(-c3ccsc3)nn3c2CCCC3)n1 (centres unmarked) [compound 42]
Test A disease control rating [1]: 0%
Test B disease control rating [2]: 85%
Test C disease control rating (Fusarium graminearum): 66%
Test D disease control rating (Septoria nodorum): 0%
Test E disease control rating (Septoria tritici): 59%
Test J disease control rating (Phytophthora infestans): 99%
Test L disease control rating (Pythium aphanidermatum): 100%

Fc1ccc(-c2nn3c(c2-c2ccnc(NCC4CCCO4)n2)CCCC3)cc1 (centres unmarked) [compound 34]
Test A disease control rating [1]: 96%
Test B disease control rating [2]: 100%
Test C disease control rating (Fusarium graminearum): 98%
Test D disease control rating (Septoria nodorum): 100%
Test E disease control rating (Septoria tritici): 94%
Test J disease control rating (Phytophthora infestans): 91%
Test L disease control rating (Pythium aphanidermatum): 100%

C[Si](C)(C)CNc1nccc(-c2c(-c3ccc(F)cc3)nn3c2CCCC3)n1 [compound 35]
Test A disease control rating [1]: 0%
Test B disease control rating [2]: 99%
Test C disease control rating (Fusarium graminearum): 99%
Test D disease control rating (Septoria nodorum): 99%
Test E disease control rating (Septoria tritici): 100%
Test J disease control rating (Phytophthora infestans): 67%
Test L disease control rating (Pythium aphanidermatum): 0%

COCC(C)Nc1nccc(-c2c(-c3cccc(F)c3)nn3c2CCC3)n1 (centres unmarked) [compound 100]
Test A disease control rating [1]: 0%
Test B disease control rating [2]: 89%
Test C disease control rating (Fusarium graminearum): 99%
Test D disease control rating (Septoria nodorum): 90%
Test E disease control rating (Septoria tritici): 92%
Test J disease control rating (Phytophthora infestans): 98%
Test L disease control rating (Pythium aphanidermatum): 100%
